Results from ChEMBL document CHEMBL5150008, “Fragment-Guided Discovery of Pyrazole Carboxylic Acid Inhibitors of the Kelch-like ECH-Associated Protein 1: Nuclear Factor Erythroid 2 Related Factor 2 (KEAP1:NRF2) Protein-Protein Interaction” (J Med Chem, 2021).

Columns and labels:
Keap1/Nrf2 [1] = molecular target: Keap1/Nrf2 (Homo sapiens, UniProt Q14145); test: (§1) Inhibition of 5'-TAMRA tagged NRF2 (unknown origin)/human recombinant N-terminal Avi tagged KEAP-1 (321 to 609 residues) expressed in Baculovirus system infected in Sf9 cells protein-protein interaction by fluorescence polarisation assay
Sequence of Keap1/Nrf2 (Homo sapiens, UniProt Q14145) (Q16236 whole entry, the tested form may be a part): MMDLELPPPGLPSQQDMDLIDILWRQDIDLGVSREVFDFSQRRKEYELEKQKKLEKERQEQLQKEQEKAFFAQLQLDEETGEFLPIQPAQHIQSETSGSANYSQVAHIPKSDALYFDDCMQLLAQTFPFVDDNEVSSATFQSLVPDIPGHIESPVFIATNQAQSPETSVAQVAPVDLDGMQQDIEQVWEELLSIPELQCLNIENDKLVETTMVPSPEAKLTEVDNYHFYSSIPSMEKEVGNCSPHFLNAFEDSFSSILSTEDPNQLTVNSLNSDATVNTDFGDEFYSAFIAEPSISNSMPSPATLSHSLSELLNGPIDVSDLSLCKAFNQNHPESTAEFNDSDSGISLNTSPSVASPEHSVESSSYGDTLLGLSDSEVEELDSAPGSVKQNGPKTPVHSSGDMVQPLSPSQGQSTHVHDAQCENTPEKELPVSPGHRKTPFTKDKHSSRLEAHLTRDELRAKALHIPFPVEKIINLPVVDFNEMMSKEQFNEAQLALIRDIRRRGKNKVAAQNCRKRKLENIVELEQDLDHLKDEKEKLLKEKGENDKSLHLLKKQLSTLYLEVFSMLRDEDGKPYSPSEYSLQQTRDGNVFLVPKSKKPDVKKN
Sequence of Keap1/Nrf2 (Homo sapiens, UniProt Q14145) (Q14145 whole entry, the tested form may be a part): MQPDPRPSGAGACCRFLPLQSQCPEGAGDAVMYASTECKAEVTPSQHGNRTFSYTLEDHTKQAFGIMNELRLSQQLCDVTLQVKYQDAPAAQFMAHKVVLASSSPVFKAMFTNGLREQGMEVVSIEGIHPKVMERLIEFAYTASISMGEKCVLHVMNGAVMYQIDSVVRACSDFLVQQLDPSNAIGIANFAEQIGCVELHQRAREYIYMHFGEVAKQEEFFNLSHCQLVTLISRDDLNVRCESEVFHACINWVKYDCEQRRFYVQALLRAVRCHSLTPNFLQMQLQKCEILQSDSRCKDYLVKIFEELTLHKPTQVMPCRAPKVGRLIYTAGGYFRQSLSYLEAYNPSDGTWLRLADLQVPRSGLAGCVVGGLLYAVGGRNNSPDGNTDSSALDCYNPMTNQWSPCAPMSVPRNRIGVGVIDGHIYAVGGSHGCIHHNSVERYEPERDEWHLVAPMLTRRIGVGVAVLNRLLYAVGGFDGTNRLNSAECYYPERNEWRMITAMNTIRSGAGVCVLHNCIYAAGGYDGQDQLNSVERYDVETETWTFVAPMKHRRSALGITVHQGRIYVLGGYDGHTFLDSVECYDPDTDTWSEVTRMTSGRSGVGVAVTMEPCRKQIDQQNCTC

[2] = Lipophilicity, logD of compound at pH 2 to 10.5 by reversed-phase HPLC; format: physicochemical
Keap1/Nrf2 [3] = molecular target: T1, Keap1/Nrf2 (Homo sapiens, UniProt Q16236+Q14145); test: Inhibition of 5'-TAMRA tagged NRF2 (unknown origin)/human recombinant N-terminal Avi tagged KEAP-1 (321 to 609 residues) expressed in Baculovirus system infected in Sf9 cells protein-protein interaction at 0.03 uM by fluorescence polarisation assay relative to control
[4] = Permeability in artificial phospholipid membrane by AMPA based HPLC/UV analysis; format: ADME, cell membranes; details: not told; read-out: permeability
Keap1/Nrf2 [5] = molecular target: T1, Keap1/Nrf2; test: Inhibition of 5'-TAMRA tagged NRF2 (unknown origin)/human recombinant N-terminal Avi tagged KEAP-1 (321 to 609 residues) expressed in Baculovirus system infected in Sf9 cells protein-protein interaction at 0.1 uM by fluorescence polarisation assay relative to control
Target sequence in this assay (Q14145 whole entry, looked up, the tested form may be a part): as the sequence (Q14145 whole entry, the tested form may be a part) above
Target sequence in this assay (Q16236 whole entry, looked up, the tested form may be a part): as the sequence (Q16236 whole entry, the tested form may be a part) above

Keap1/Nrf2 [6] = molecular target: T1, Keap1/Nrf2; test: Inhibition of 5'-TAMRA tagged NRF2 (unknown origin)/human recombinant N-terminal Avi tagged KEAP-1 (321 to 609 residues) expressed in Baculovirus system infected in Sf9 cells protein-protein interaction at 0.015 uM by fluorescence polarisation assay relative to control
Target sequence in this assay (Q14145 whole entry, looked up, the tested form may be a part): as the sequence (Q14145 whole entry, the tested form may be a part) above
Target sequence in this assay (Q16236 whole entry, looked up, the tested form may be a part): as the sequence (Q16236 whole entry, the tested form may be a part) above

Keap1/Nrf2 [7] = molecular target: T1, Keap1/Nrf2; test: as §1
Target sequence in this assay (Q14145 whole entry, looked up, the tested form may be a part): as the sequence (Q14145 whole entry, the tested form may be a part) above
Target sequence in this assay (Q16236 whole entry, looked up, the tested form may be a part): as the sequence (Q16236 whole entry, the tested form may be a part) above

Keap1/Nrf2 [8] = molecular target: T1, Keap1/Nrf2; test: Inhibition of 5'-TAMRA tagged NRF2 (unknown origin)/human recombinant N-terminal Avi tagged KEAP-1 (321 to 609 residues) expressed in Baculovirus system infected in Sf9 cells protein-protein interaction at 0.05 uM by fluorescence polarisation assay relative to control
Target sequence in this assay (Q14145 whole entry, looked up, the tested form may be a part): as the sequence (Q14145 whole entry, the tested form may be a part) above
Target sequence in this assay (Q16236 whole entry, looked up, the tested form may be a part): as the sequence (Q16236 whole entry, the tested form may be a part) above

IC50 (Keap1/Nrf2 [1]; read-out: IC50) [µM]	chromatographic logD [2]	Papp [4] [×10⁻⁶ cm/s]	Structure (SMILES)	other results
7.5			CN(C)C(=O)c1ccnc(-c2cccc(-n3ncc(C(=O)O)c3C(F)(F)F)c2)c1	
	3.5	1.6	O=C(O)c1cnn(-c2cccc(-c3cccc(C(=O)N(CC4CC4)CC4CC4)c3F)c2)c1C1CC1	inhibition (Keap1/Nrf2 [3]): 46%
0.48			CN(C)C(=O)c1cccc(-c2cccc(-n3ncc(C(=O)O)c3C(F)(F)F)c2)c1	
0.12	2.3	< 0.3	O=C(O)c1cnn(-c2cccc(-c3cccc(C(=O)N4CCCCC4)c3F)c2)c1C1CC1	IC50 (Keap1/Nrf2 [1]; read-out: pIC50 (converted)): < 1 µM
	2.2	0.3	CN(CC1CC1)C(=O)c1cccc(-c2cccc(-n3ncc(C(=O)O)c3C3CC3)c2)c1F	IC50 (Keap1/Nrf2 [1]; read-out: pIC50 (converted)): < 1 µM; inhibition (Keap1/Nrf2 [5]): 50%
3.5			CC(=O)N1CCC(c2c(C(=O)O)cnn2-c2cccc(-c3cccc(C(=O)N(C)C)c3)c2)CC1	
0.06	3.5	6.3	CCC[C@H]1CCCCN1C(=O)c1cccc(-c2cccc(-n3ncc(C(=O)O)c3C3CC3)c2)c1F	
1			CN(C)C(=O)c1cccc(-c2cccc(-n3ncc(C(=O)O)c3C3CCCC3)c2)c1	
	4.4	2.7	CCCCC1CCCN1C(=O)C1CCCC(c2cccc(-n3ncc(C(=O)O)c3C3CC3)c2)C1 (mixture of isomers)	inhibition (Keap1/Nrf2 [3]): 64%
0.3	2.7	< 0.3	O=C(O)c1cnn(-c2cccc([C@@H]3CCC[C@H](C(=O)N4CCCCC4)C3)c2)c1C1CC1 (racemic)	
10			CN(C)C(=O)c1cccc(-c2cccc(-n3ncc(C(=O)O)c3C(C)(C)C)n2)c1	
2			CN(C)C(=O)c1cccc(-c2cccc(-n3ncc(C(=O)O)c3-c3cccnc3)c2)c1	
0.041	0.8	< 0.3	CN(C)C(=O)c1cccc(-c2cccc(-n3ncc(C(=O)O)c3C3CC3c3cn(C)nn3)c2)c1 (racemic)	inhibition (Keap1/Nrf2 [3]): 53%; IC50 (Keap1/Nrf2 [1]; read-out: pIC50 (converted)): < 1 µM
0.37	1.4	< 0.3	CN(C)C(=O)c1cccc(-c2cccc(-n3ncc(C(=O)O)c3C3CC3)c2)c1	IC50 (Keap1/Nrf2 [1]; read-out: pIC50 (converted)): < 1 µM
1.8			CN(C)C(=O)c1cccc(-c2cccc(-n3ncc(C(=O)O)c3C3CCCCC3)c2)c1	
	3.1	4	CCCC1CCCCN1C(=O)c1cccc(-c2cccc(-n3ncc(C(=O)O)c3C3CC3c3ccccn3)c2)c1 (mixture of isomers)	inhibition (Keap1/Nrf2 [3]): 42%
> 10	1.3	< 0.3	CN(C)C(=O)c1cccc(-c2cccc(-n3ncc(C(=O)O)c3C3CC3)c2)c1F	IC50 (Keap1/Nrf2 [1]; read-out: pIC50 (converted)): < 1 µM
1			CN(C)C(=O)c1cccc(-c2cccc(-n3ncc(C(=O)O)c3C(F)(F)F)n2)c1	

IC50 (Keap1/Nrf2 [1]; read-out: IC50) [µM]	chromatographic logD [2]	Papp [4] [×10⁻⁶ cm/s]	Structure (SMILES)	other results
3.7			CN(C)C(=O)c1cncc(-c2cccc(-n3ncc(C(=O)O)c3C(F)(F)F)c2)c1	
	4.3	1.6	CCCC[C@@H]1CCCN1C(=O)[C@H]1CCC[C@@H](c2cccc(-n3ncc(C(=O)O)c3C3CC3)c2)C1	inhibition (Keap1/Nrf2 [6]): 81%
	3	1.7	CCC[C@@H]1CCCCN1C(=O)c1cccc(-c2cccc(-n3ncc(C(=O)O)c3[C@@H]3C[C@H]3c3cn(C)nn3)c2)c1	IC50 (Keap1/Nrf2 [7]): 0.56 µM
0.221	3.9	13	CCCC1CCCCN1C(=O)c1cccc(-c2cccc(-n3ncc(C(=O)O)c3C3CC3c3cccnc3)c2)c1 (mixture of isomers)	
	3	1.6	CCC[C@@H]1CCCCN1C(=O)c1cccc(-c2cccc(-n3ncc(C(=O)O)c3[C@H]3C[C@@H]3c3cn(C)nn3)c2)c1	inhibition (Keap1/Nrf2 [6]): 98%
0.23	4.1	1.1	CCCC1CCCCN1C(=O)C1CCCC(c2cccc(-n3ncc(C(=O)O)c3C3CC3)c2)C1 (mixture of isomers)	
	3.5	2.7	CCC[C@@H]1CCCCN1C(=O)c1cccc(-c2cccc(-n3ncc(C(=O)O)c3C3CC3)c2)c1F	inhibition (Keap1/Nrf2 [6]): 52%
0.24	1.7	< 0.3	CN(C)C(=O)[C@H]1CCC[C@@H](c2cccc(-n3ncc(C(=O)O)c3C3CC3)c2)C1 (racemic)	IC50 (Keap1/Nrf2 [1]; read-out: pIC50 (converted)): < 1 µM
	2.9	1.7	CCCC1CCCCN1C(=O)c1cccc(-c2cccc(-n3ncc(C(=O)O)c3C3CC3c3cccnn3)c2)c1 (mixture of isomers)	inhibition (Keap1/Nrf2 [6]): 50%
	3.7	1.2	O=C(O)c1cnn(-c2cccc(-c3cccc(C(=O)N4CCCC5(CCCC5)C4)c3F)c2)c1C1CC1	inhibition (Keap1/Nrf2 [6]): 50%
> 300			O=C(O)c1cnn(-c2ccccc2)c1C(F)(F)F	
4.6			O=C(O)c1cnn(-c2cccc(NS(=O)(=O)c3ccccc3)c2)c1C(F)(F)F	
	2.5	1.1	CCCC1COCCN1C(=O)c1cccc(-c2cccc(-n3ncc(C(=O)O)c3C3CC3)c2)c1F (stereo not given)	inhibition (Keap1/Nrf2 [8]): 72%; inhibition (Keap1/Nrf2 [3]): 60%
> 1000			O=C(O)c1cnn(-c2ccccn2)c1C(F)(F)F	
	2.9	3.7	CCCC1CCCCN1C(=O)c1cccc(-c2cccc(-n3ncc(C(=O)O)c3C3CC3c3cn(C)nn3)c2)c1 (mixture of isomers)	inhibition (Keap1/Nrf2 [6]): 84%
45			O=C(O)c1cnn(-c2cccc(-c3cccc(CNS(=O)(=O)c4ccccc4)c3)c2)c1C(F)(F)F	
8.5			CC(C)Oc1cccc(-c2cccc(-n3ncc(C(=O)O)c3C(F)(F)F)n2)c1	
